Results as given in US20110082212A1, “MULTI-S[…] ANDROGEN RECEPTOR MODULATORS AND METHODS OF USE THEREOF” (priority 2002, published 2011).
Several values for one entry are separate records, joined by “and”; a condition that tells them apart may be missing. Equal values may be shown once.

How the values were obtained:
androgen receptor = molecular target: T1, androgen receptor (Rattus norvegicus, UniProt P15207); test: Androgen receptor binding affinities; conditions: for RBA: relative binding affinity, androgen receptor
T1 construct: from tissue; host or cells: Rat ventral prostate cytosol
T1 sequence (P15207 1-902): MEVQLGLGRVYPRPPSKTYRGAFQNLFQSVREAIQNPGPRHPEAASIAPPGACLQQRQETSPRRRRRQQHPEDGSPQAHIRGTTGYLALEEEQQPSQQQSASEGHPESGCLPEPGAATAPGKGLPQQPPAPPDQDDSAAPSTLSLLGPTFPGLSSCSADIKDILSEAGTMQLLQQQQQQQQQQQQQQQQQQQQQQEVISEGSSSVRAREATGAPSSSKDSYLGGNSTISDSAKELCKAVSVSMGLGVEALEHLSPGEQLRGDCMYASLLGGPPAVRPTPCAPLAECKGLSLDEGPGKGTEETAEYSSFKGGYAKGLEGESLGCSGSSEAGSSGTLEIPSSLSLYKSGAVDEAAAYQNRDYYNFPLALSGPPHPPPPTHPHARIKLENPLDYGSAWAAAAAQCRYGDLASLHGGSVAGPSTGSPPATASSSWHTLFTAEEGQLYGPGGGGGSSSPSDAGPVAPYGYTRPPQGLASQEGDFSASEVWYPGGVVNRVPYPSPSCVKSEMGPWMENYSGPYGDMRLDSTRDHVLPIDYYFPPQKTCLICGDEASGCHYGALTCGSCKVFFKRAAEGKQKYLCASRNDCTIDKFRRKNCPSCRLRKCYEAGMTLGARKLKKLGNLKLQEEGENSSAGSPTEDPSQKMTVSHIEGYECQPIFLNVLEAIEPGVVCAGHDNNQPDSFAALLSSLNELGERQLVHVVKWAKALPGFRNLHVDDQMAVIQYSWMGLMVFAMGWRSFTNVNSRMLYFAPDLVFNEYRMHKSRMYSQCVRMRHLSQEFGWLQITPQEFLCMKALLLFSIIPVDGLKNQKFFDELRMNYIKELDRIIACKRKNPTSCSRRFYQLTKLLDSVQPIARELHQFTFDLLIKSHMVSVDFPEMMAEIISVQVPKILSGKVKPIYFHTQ

[1] = test system: castrated male rats (prostate, seminal vesicles, levator ani muscle); test: Androgenic and anabolic activity of compounds 1 and 2 in castrated rat model (organ weights); format: in vivo, Sprague-Dawley rats; conditions: 14 days; for Seminal Vesicles weight: intact 101 ± 26.8, castrated 8.1 ± 1.8; for Levator Ani Muscle weight: intact 102 ± 8.1, castrated 40.9 ± 9.4; for Prostate weight: intact 100 ± 14.3, castrated 6.2 ± 2.5
Description: Intact Controls (not castrated, untreated) and Castrated Controls (castrated, untreated) were used as the control groups.

[2] = test system: intact male rats (ventral prostate, seminal vesicles, levator ani muscle); test: Pharmacologic activity of TP and compound 7 in intact male rats (organ weights); format: in vivo; conditions: 0.5 mg/day, 14 days
Experimental: (§1) Forty-five male SD rats, weighing approximately 200 g, were randomly divided into nine groups with five rats per group. One day before treatment, groups 1 through 8 were castrated via a scrotal incision under anesthesia. Group 9 served as an intact vehicle control. Compound 7 was dissolved in a vehicle containing DMSO (5%, v/v) in PEG 300. Groups 1 through 7 received daily subcutaneous injections of compound 7 at a dose rate of 0.05, 0.1, 0.3, 0.5, 0.75, 1, and 3 mg/day, respectively. Groups 8 and 9 received vehicle. […] This dose rate was chosen based on the results from the aforementioned study in castrated rats. Rats were sacrificed after 14 days treatment. Serum samples were collected and stored at −80° C. The ventral prostate, seminal vesicles, and levator ani muscle were removed, cleared of extraneous tissue, and weighed. All organ weights were normalized to body weight and compared. The weights of the prostate and seminal vesicles were used to evaluate androgenic activity, while the levator ani muscle weight was used as a measurement of anabolic activity.

LH and FSH levels = test: Serum LH and FSH levels in castrated rats treated with compound 7 (RIA); format: in vivo, SD rats
Experimental: as §1

serum testosterone = test: Serum testosterone concentrations in intact male rats (EIA); format: in vivo; conditions: 0.5 mg/day, 14 days, individual animals (n=5/group), detection limit 0.04 ng/mL, intact rats 4.47±1.66
Experimental: as §1

[3] = test system: castrated male rats (ventral prostate, seminal vesicles, levator ani muscle); test: Androgenic and anabolic activity of compound 7 in castrated male rats (organ weights, dose response); format: in vivo, SD rats; conditions: 14 days
Experimental: as §1

[4] = daily s.c., nonlinear regression of dose-response

**Q.** For `C[C@](O)(COc1ccc(F)c(F)c1)C(=O)Nc1ccc([N+](=O)[O-])c(C(F)(F)F)c1` [Compound 1], which RBA (androgen receptor) is on record?
**A.** Its RBA is 17.6%.

**Q.** And the “levator ani muscle weight compared with intact animals” value ([1]; 1 mg/d)?
**A.** The value was “maintain the levator ani muscle weight of castrated animals in the same level as that of intact animals”.

**Q.** What about the “Seminal Vesicles weight” value ([1]; 1 mg/day via osmotic pump) of the same compound?
**A.** The value was 30.9 ± 5.7.

**Q.** What about the “Levator Ani Muscle weight” value ([1]; 1 mg/day via osmotic pump) of the same compound?
**A.** The value was 122.5 ± 10.4.

**Q.** What about the Prostate weight ([1]; 1 mg/day via osmotic pump, normalized to body weight) of the same compound?
**A.** The Prostate weight was 40.3 ± 10.0.

**Q.** What about the Prostate weight ([1]; 1 mg/day, daily injection) of the same compound?
**A.** Its Prostate weight is 33.1 ± 8.5.

**Q.** And the “Seminal Vesicles weight” value ([1]; 1 mg/day, daily injection)?
**A.** Its value is 23.6 ± 8.8.

**Q.** And the “Levator Ani Muscle weight” value ([1]; 1 mg/day, daily injection)?
**A.** Its value is 112.8 ± 9.4.

**Q.** What does the source list for `C[C@](O)(COc1cc(F)cc(F)c1F)C(=O)Nc1ccc([N+](=O)[O-])c(C(F)(F)F)c1` [Compound 6]?
**A.** Ki (androgen receptor): 9.1 ± 0.6 nM; RBA (androgen receptor): 3.4%

**Q.** How did the “effect on growth of prostate, seminal vesicles and levator ani muscle” value [2] turn out when `CCC(=O)O[C@H]1CC[C@H]2[C@@H]3CCC4=CC(=O)CC[C@]4(C)[C@H]3CC[C@]12C` [TP, testosterone propionate, reference compound] was run?
**A.** Its value is “stimulated growth in all three organs”.

**Q.** Which results are given for `C[C@](O)(COc1ccc(Cl)c(F)c1)C(=O)Nc1ccc([N+](=O)[O-])c(C(F)(F)F)c1` [Compound 7]?
**A.** lowest dose reversing FSH levels back to physiologic levels (LH and FSH levels): 0.5 mg/day; lowest dose reversing LH levels back to physiologic levels (LH and FSH levels): 0.3 mg/day; FSH (LH and FSH levels; 0.1 mg/day, intact control 11.2 ± 2.0, castrated control 63.4 ± 5.0): 53.0 ± 5.1 ^I ng/mL; LH (LH and FSH levels; 0.1 mg/day, intact control <0.2, castrated control 8.4 ± 2.5): 3.6 ± 0.8 ^I ng/mL; FSH (LH and FSH levels; 0.3 mg/day): 26.6 ± 8.9 ^I ng/mL; LH (LH and FSH levels; 0.3 mg/day): <0.2 ^C ng/mL; FSH (LH and FSH levels; 0.5 mg/day): 12.4 ± 1.1 ^C ng/mL; LH (LH and FSH levels; 0.5 mg/day): <0.2 ^C ng/mL; FSH (LH and FSH levels; 0.75 mg/day): 12.8 ± 1.6 ^C ng/mL; LH (LH and FSH levels; 0.75 mg/day): <0.2 ^C ng/mL; serum testosterone concentration (serum testosterone): < 0.04 ng/mL and 0.11 ng/mL and 0.46 ng/mL; organ weights (ventral prostate, seminal vesicles, levator ani muscle) restored relative to intact controls ([3]; 3 mg/day s.c.): up to 130%; ED50 in levator ani muscle [3, 4]: 0.17 ± 0.04 mg/day; ED50 in prostate [3, 4]: 0.77 ± 0.06 mg/day; ED50 in seminal vesicle [3, 4]: 0.88 ± 0.14 mg/day; effect on levator ani muscle weight [2]: maintained levator ani muscle weight; effect on size of prostate and seminal vesicles [2]: reduced the size of the prostate and seminal vesicles; Ki (androgen receptor): 4.9 ± 0.3 nM; RBA (androgen receptor): 9.1%

**Q.** For `C[C@](O)(COc1ccc(F)cc1F)C(=O)Nc1ccc([N+](=O)[O-])c(C(F)(F)F)c1` [Compound 5], which Ki (androgen receptor) is on record?
**A.** Its Ki is 3.2 ± 0.3 nM.

**Q.** What about the RBA (androgen receptor) of the same compound?
**A.** Its RBA is 10.9%.

**Q.** How did the Ki (androgen receptor) turn out when `C[C@](O)(COc1ccccc1F)C(=O)Nc1ccc([N+](=O)[O-])c(C(F)(F)F)c1` [Compound 10] was run?
**A.** The Ki was 3.4 ± 0.34 nM.

**Q.** And the RBA (androgen receptor)?
**A.** The RBA was 5.9%.

**Q.** With `C[C@](O)(COc1ccc(F)c(Cl)c1)C(=O)Nc1ccc([N+](=O)[O-])c(C(F)(F)F)c1` [Compound 8] as the compound, how does the Ki (androgen receptor) read?
**A.** Its Ki is 10.3 ± 2 nM.

**Q.** And the RBA (androgen receptor)?
**A.** Its RBA is 4.3%.

**Q.** How did the Ki (androgen receptor) turn out when `C[C@](O)(COc1ccc(Cl)c(Cl)c1)C(=O)Nc1ccc([N+](=O)[O-])c(C(F)(F)F)c1` [Compound 9] was run?
**A.** Its Ki is 1 ± 0.09 nM.

**Q.** What about the RBA (androgen receptor) of the same compound?
**A.** The RBA was 20.2%.

**Q.** How did the Ki (androgen receptor) turn out when `C[C@](O)(COc1ccc(F)c(F)c1F)C(=O)Nc1ccc([N+](=O)[O-])c(C(F)(F)F)c1` [Compound 3] was run?
**A.** The Ki was 11.3 ± 1.1 nM.

**Q.** And the RBA (androgen receptor)?
**A.** Its RBA is 3.1%.

**Q.** With `C[C@](O)(COc1c(F)c(F)c(F)c(F)c1F)C(=O)Nc1ccc([N+](=O)[O-])c(C(F)(F)F)c1` [Compound 2] as the compound, how does the RBA (androgen receptor) read?
**A.** Its RBA is 13.3%.

**Q.** And the Prostate weight ([1]; 1 mg/day, daily injection)?
**A.** The Prostate weight was 7.2 ± 1.4.

**Q.** And the “Seminal Vesicles weight” value ([1]; 1 mg/day, daily injection)?
**A.** The value was 7.2 ± 0.9.

**Q.** And the “Levator Ani Muscle weight” value ([1]; 1 mg/day, daily injection)?
**A.** Its value is 55.83 ± 2.84.

**Q.** With `C[C@](O)(COc1c(F)cc(F)cc1F)C(=O)Nc1ccc([N+](=O)[O-])c(C(F)(F)F)c1` [Compound 11] as the compound, how does the Ki (androgen receptor) read?
**A.** The Ki was 10.3 ± 2 nM.
